Test system: 317291-083-R-J1-PDC complex spheroid growth
Test: Anticancer human tumor 317291-083-R-J1-PDC patient-derived soft tissue sarcoma cell line growth inhibition [Asc]
Conditions: for IC50: curve of first compound; for viability, T/C: stronger effect = lower value; active = viability on the fitted dose curve at most 10% of control; inactive = the rest
Outline: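 Complex spheroids combining tumor cells with HUVEC endothelial cells and human MSCs, at 37 degrees C, 5% CO2; agents tested alone or combined, half-log dilutions from at or near clinical Cmax, or 10 microM if Cmax unknown.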

[1] = second compound 0.00316 µM, first compound 0.0316 µM
[2] = second compound 0.00316 µM, first compound 0.1 µM
[3] = second compound 0.00316 µM, first compound 0.316 µM
[4] = second compound 0.00316 µM, first compound 1 µM
[5] = second compound 0.00316 µM, first compound 3.16 µM
[6] = second compound 0.00316 µM, first compound 10 µM
[7] = second compound 0.01 µM, first compound 0.0316 µM
[8] = second compound 0.01 µM, first compound 0.1 µM
[9] = second compound 0.01 µM, first compound 0.316 µM
[10] = second compound 0.01 µM, first compound 1 µM
[11] = second compound 0.01 µM, first compound 3.16 µM
[12] = second compound 0.01 µM, first compound 10 µM
[13] = second compound 0.0316 µM, first compound 0.0316 µM
[14] = second compound 0.0316 µM, first compound 0.1 µM
[15] = second compound 0.0316 µM, first compound 0.316 µM
[16] = second compound 0.0316 µM, first compound 1 µM
[17] = second compound 0.0316 µM, first compound 3.16 µM
[18] = second compound 0.0316 µM, first compound 10 µM
[19] = second compound 0.1 µM, first compound 0.0316 µM
[20] = second compound 0.1 µM, first compound 0.1 µM
[21] = second compound 0.1 µM, first compound 0.316 µM
[22] = second compound 0.1 µM, first compound 1 µM
[23] = second compound 0.1 µM, first compound 3.16 µM
[24] = second compound 0.1 µM, first compound 10 µM
[25] = second compound 0.316 µM, first compound 0.0316 µM
[26] = second compound 0.316 µM, first compound 0.1 µM
[27] = second compound 0.316 µM, first compound 0.316 µM
[28] = second compound 0.316 µM, first compound 1 µM
[29] = second compound 0.316 µM, first compound 3.16 µM
[30] = second compound 0.316 µM, first compound 10 µM
[31] = second compound 1 µM, first compound 0.0316 µM
[32] = second compound 1 µM, first compound 0.1 µM
[33] = second compound 1 µM, first compound 0.316 µM
[34] = second compound 1 µM, first compound 1 µM
[35] = second compound 1 µM, first compound 3.16 µM
[36] = second compound 1 µM, first compound 10 µM
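Note: compound exposure lasted seven days after spheroids formed for three days.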
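Throughout, for viability, T/C: 100% = DMSO vehicle control wells.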

C#Cc1c(F)ccc2cc(O)cc(-c3ncc4c(N5CC6CCC(C5)N6)nc(OCC56CCCN5CC(F)C6)nc4c3F)c12 (stereo unspecified) + CNC(C)C(=O)NC1CN(S(=O)(=O)c2cccc(S(=O)(=O)N3CCC4CCC(C(=O)NC(c5ccccc5)c5ccccc5)N4C(=O)C(NC(=O)C(C)NC)C3)c2)CCC2CCC(C(=O)NC(c3ccccc3)c3ccccc3)N2C1=O
6740 nM: IC50 (second compound 0.00316 µM)
< 31.6 nM: IC50 (second compound 0.316 µM) | IC50 (second compound 1 µM)
8010 nM: IC50 (second compound 0.01 µM)
inactive: viability, T/C [1] 76.3% | viability, T/C [2] 75.7% | viability, T/C [3] 72.3% | viability, T/C [4] 84.3% | viability, T/C [5] 87% | viability, T/C [6] 34.8% | viability, T/C [7] 84.2% | viability, T/C [8] 71.6% | viability, T/C [9] 57.8% | viability, T/C [10] 81.4% | viability, T/C [11] 76% | viability, T/C [12] 44.3% | viability, T/C [13] 67.5% | viability, T/C [14] 66.6% | viability, T/C [15] 59.3% | viability, T/C [16] 63.9% | viability, T/C [17] 58.1% | viability, T/C [18] 23.5% | viability, T/C [19] 54.9% | viability, T/C [20] 55% | viability, T/C [21] 53.3% | viability, T/C [22] 50.8% | viability, T/C [23] 59% | viability, T/C [24] 15.1% | viability, T/C [25] 42.9% | viability, T/C [26] 46.2% | viability, T/C [27] 44.3% | viability, T/C [28] 31.9% | viability, T/C [29] 43.6% | viability, T/C [30] 10.6% | viability, T/C [31] 31.1% | viability, T/C [32] 29% | viability, T/C [33] 29.4% | viability, T/C [34] 24.4% | viability, T/C [35] 26.2% | viability, T/C [36] 8.59%
4120 nM: IC50 (second compound 0.0316 µM)
3610 nM: IC50 (second compound 0.1 µM)

C=C(F)C(=O)N1CCN(c2nc(OCC3CCCN3C)nc3c2CCN(c2cccc4cccc(Cl)c24)C3)CC1CC#N (stereo unspecified) + CNC(C)C(=O)NC1CN(S(=O)(=O)c2cccc(S(=O)(=O)N3CCC4CCC(C(=O)NC(c5ccccc5)c5ccccc5)N4C(=O)C(NC(=O)C(C)NC)C3)c2)CCC2CCC(C(=O)NC(c3ccccc3)c3ccccc3)N2C1=O
559 nM: IC50 (second compound 0.0316 µM)
71 nM: IC50 (second compound 0.1 µM)
< 31.6 nM: IC50 (second compound 0.316 µM) | IC50 (second compound 1 µM)
948 nM: IC50 (second compound 0.00316 µM)
1030 nM: IC50 (second compound 0.01 µM)
active: viability, T/C [6] 0.13% | viability, T/C [11] 9.6% | viability, T/C [12] 0.1% | viability, T/C [17] 8.82% | viability, T/C [18] 0.1% | viability, T/C [24] 0.1% | viability, T/C [30] 0.44% | viability, T/C [36] 0.2%
inactive: viability, T/C [1] 90.9% | viability, T/C [2] 69.3% | viability, T/C [3] 67% | viability, T/C [4] 54.3% | viability, T/C [5] 25% | viability, T/C [7] 66.7% | viability, T/C [8] 61.8% | viability, T/C [9] 68.5% | viability, T/C [10] 50.4% | viability, T/C [13] 62% | viability, T/C [14] 54.2% | viability, T/C [15] 46.8% | viability, T/C [16] 46.6% | viability, T/C [19] 59.1% | viability, T/C [20] 39.9% | viability, T/C [21] 38.5% | viability, T/C [22] 38.2% | viability, T/C [23] 11.7% | viability, T/C [25] 38.1% | viability, T/C [26] 29.4% | viability, T/C [27] 35% | viability, T/C [28] 29.3% | viability, T/C [29] 13.1% | viability, T/C [31] 37.9% | viability, T/C [32] 32.2% | viability, T/C [33] 32% | viability, T/C [34] 19.4% | viability, T/C [35] 9.16%

CCN1C(C(=O)NC23CCC(C(=O)O)(CC2)CC3)C(c2cccc(Cl)c2F)C2(C(=O)Nc3cc(Cl)ccc32)C12CCCCC2 (stereo unspecified) + CNC(C)C(=O)NC1CN(S(=O)(=O)c2cccc(S(=O)(=O)N3CCC4CCC(C(=O)NC(c5ccccc5)c5ccccc5)N4C(=O)C(NC(=O)C(C)NC)C3)c2)CCC2CCC(C(=O)NC(c3ccccc3)c3ccccc3)N2C1=O
inactive: viability, T/C (second compound 0.00316 µM, first compound 0.00949 µM) 86% | viability, T/C (second compound 0.00316 µM, first compound 0.03 µM) 113% | viability, T/C (second compound 0.00316 µM, first compound 0.0949 µM) 100% | viability, T/C (second compound 0.00316 µM, first compound 0.3 µM) 108% | viability, T/C (second compound 0.00316 µM, first compound 0.949 µM) 84.6% | viability, T/C (second compound 0.00316 µM, first compound 3 µM) 65.1% | viability, T/C (second compound 0.01 µM, first compound 0.00949 µM) 68.5% | viability, T/C (second compound 0.01 µM, first compound 0.03 µM) 95.9% | viability, T/C (second compound 0.01 µM, first compound 0.0949 µM) 83.7% | viability, T/C (second compound 0.01 µM, first compound 0.3 µM) 71.9% | viability, T/C (second compound 0.01 µM, first compound 0.949 µM) 63.3% | viability, T/C (second compound 0.01 µM, first compound 3 µM) 56.1% | viability, T/C (second compound 0.0316 µM, first compound 0.00949 µM) 82.5% | viability, T/C (second compound 0.0316 µM, first compound 0.03 µM) 85.6% | viability, T/C (second compound 0.0316 µM, first compound 0.0949 µM) 79.2% | viability, T/C (second compound 0.0316 µM, first compound 0.3 µM) 78.1% | viability, T/C (second compound 0.0316 µM, first compound 0.949 µM) 63.8% | viability, T/C (second compound 0.0316 µM, first compound 3 µM) 60.5% | viability, T/C (second compound 0.1 µM, first compound 0.00949 µM) 55.4% | viability, T/C (second compound 0.1 µM, first compound 0.03 µM) 61.9% | viability, T/C (second compound 0.1 µM, first compound 0.0949 µM) 66.2% | viability, T/C (second compound 0.1 µM, first compound 0.3 µM) 67.3% | viability, T/C (second compound 0.1 µM, first compound 0.949 µM) 60% | viability, T/C (second compound 0.1 µM, first compound 3 µM) 42.5% | viability, T/C (second compound 0.316 µM, first compound 0.00949 µM) 47.5% | viability, T/C (second compound 0.316 µM, first compound 0.03 µM) 55.3% | viability, T/C (second compound 0.316 µM, first compound 0.0949 µM) 45.5% | viability, T/C (second compound 0.316 µM, first compound 0.3 µM) 46.7% | viability, T/C (second compound 0.316 µM, first compound 0.949 µM) 49.4% | viability, T/C (second compound 0.316 µM, first compound 3 µM) 45.2% | viability, T/C (second compound 1 µM, first compound 0.00949 µM) 41.2% | viability, T/C (second compound 1 µM, first compound 0.03 µM) 31.3% | viability, T/C (second compound 1 µM, first compound 0.0949 µM) 32.4% | viability, T/C (second compound 1 µM, first compound 0.3 µM) 35.4% | viability, T/C (second compound 1 µM, first compound 0.949 µM) 30.5% | viability, T/C (second compound 1 µM, first compound 3 µM) 27.8%
< 9.49 nM: IC50 (second compound 0.316 µM) | IC50 (second compound 1 µM)
> 3000 nM: IC50 (second compound 0.00316 µM) | IC50 (second compound 0.01 µM) | IC50 (second compound 0.0316 µM) | IC50 (second compound 0.1 µM)
